# In patent publication US20240109864A1, “SUBSTITUTED PYRAZOLYL PIPERIDINE CARBOXYLIC ACIDS” (BAYER AKTIENGESELLSCHAFT, priority 2020, published 2024):
# Counter-ions that a name gives are not always drawn.
# Target: T1, recombinant guanylate cyclase reporter cell line (Rattus norvegicus, UniProt P20595)
# T1 construct: expressed in transfected cells
# T1 sequence (P20595 1-619): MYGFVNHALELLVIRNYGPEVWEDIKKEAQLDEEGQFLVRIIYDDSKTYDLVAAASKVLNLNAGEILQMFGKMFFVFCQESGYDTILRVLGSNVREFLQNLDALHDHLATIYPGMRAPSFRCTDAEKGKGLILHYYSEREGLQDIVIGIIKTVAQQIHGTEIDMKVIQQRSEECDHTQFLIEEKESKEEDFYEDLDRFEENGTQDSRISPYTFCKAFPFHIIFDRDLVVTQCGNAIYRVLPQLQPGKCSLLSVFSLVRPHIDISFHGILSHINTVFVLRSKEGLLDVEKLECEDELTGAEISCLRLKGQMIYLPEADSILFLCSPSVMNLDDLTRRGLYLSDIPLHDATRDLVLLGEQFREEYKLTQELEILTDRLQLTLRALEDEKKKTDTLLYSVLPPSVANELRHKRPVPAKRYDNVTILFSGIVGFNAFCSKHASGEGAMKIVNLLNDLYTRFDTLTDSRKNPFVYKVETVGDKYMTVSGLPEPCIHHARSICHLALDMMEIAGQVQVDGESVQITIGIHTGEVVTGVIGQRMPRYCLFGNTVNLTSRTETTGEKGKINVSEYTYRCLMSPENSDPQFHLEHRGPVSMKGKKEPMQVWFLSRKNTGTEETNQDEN
# T1 sequence (P19686 1-690 partner): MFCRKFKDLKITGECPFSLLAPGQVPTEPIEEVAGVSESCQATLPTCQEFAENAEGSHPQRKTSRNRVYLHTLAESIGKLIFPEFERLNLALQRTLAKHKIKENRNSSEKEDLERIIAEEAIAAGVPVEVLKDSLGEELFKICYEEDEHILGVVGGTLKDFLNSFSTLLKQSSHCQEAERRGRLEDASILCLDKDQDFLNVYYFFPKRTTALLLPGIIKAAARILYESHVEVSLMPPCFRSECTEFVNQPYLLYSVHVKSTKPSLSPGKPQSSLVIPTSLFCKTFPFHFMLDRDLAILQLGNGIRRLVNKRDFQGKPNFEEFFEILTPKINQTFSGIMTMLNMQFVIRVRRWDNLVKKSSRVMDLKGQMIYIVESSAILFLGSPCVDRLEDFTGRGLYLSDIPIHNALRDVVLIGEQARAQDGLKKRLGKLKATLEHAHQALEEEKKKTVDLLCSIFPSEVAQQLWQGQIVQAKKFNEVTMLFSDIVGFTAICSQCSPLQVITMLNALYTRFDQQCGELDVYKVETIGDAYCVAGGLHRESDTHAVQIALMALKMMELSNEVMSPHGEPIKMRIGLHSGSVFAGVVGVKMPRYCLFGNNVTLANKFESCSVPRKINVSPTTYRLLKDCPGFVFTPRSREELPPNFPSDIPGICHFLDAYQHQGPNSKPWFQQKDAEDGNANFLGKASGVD
# Test: Effect on a recombinant guanylate cyclase reporter cell line
# Assay type: cell-based
# Conditions: in some cases mean values from individual determinations; for MEC: MEC = minimum effective concentration; for EC50: half maximal effective concentration
# Procedure: The cellular activity of the compounds according to the invention was determined using a recombinant guanylate cyclase reporter cell line, as described in F. Wunder et al., Anal. Biochem. 339, 104-112 (2005).
Structure (SMILES),MEC,EC50,MEC (hydrochloride)
"O=C(O)c1cnn(C2CCCN(c3cc(Cl)ccc3-c3ccc(N4CCN(CC5CCC5)CC4)cc3)C2)c1C(F)(F)F (single isomer, unassigned) [Example 19, 1-[1-[5-Chloro-2-[4-[4-(cyclobutylmethyl)piperazin-1-yl]phenyl]phenyl]-3-piperidyl]-5-(trifluoromethyl)pyrazole-4-carboxylic acid hydrochloride]",3.0 nM,26.5 nM,–
"O=C(O)c1cnn(C2CCCN(c3cc(Cl)ccc3-c3ccc(N4CCN(CC5CC(F)(F)C5)CC4)cc3)C2)c1C(F)(F)F (single isomer, unassigned) [Example 20, 1-[1-[5-Chloro-2-[4-[4-[(3,3-difluorocyclobutyl)methyl]piperazin-1-yl]phenyl]phenyl]-3-piperidyl]-5-(trifluoromethyl)pyrazole-4-carboxylic acid hydrochloride]",–,3.6 nM,1.0 nM
"O=C(O)c1cnn(C2CCCN(c3cc(Cl)ccc3-c3ccc(N4CCN(CC5CC(F)(F)C5)CC4)cc3)C2)c1C(F)(F)F (single isomer, unassigned) [Example 21, 1-[1-[5-Chloro-2-[4-[4-[(3,3-difluorocyclobutyl)methyl]piperazin-1-yl]phenyl]phenyl]-3-piperidyl]-5-(trifluoromethyl)pyrazole-4-carboxylic acid hydrochloride]",–,27 nM,3.0 nM
"O=C(O)c1cnn(C2CCCN(c3cc(Cl)ccc3-c3ccc(N4CCN(CC5CC(F)C5)CC4)cc3)C2)c1C(F)(F)F (single isomer, unassigned) [Example 22, 1-[1-[5-Chloro-2-[4-[4-[(3-fluorocyclobutyl)methyl]piperazin-1-yl]phenyl]phenyl]-3-piperidyl]-5-(trifluoromethyl)pyrazole-4-carboxylic acid hydrochloride]",2.0 nM,11.4 nM,–
"O=C(O)c1cnn(C2CCCN(c3cc(Cl)ccc3-c3ccc(N4CCN(CC5(F)CCC5)CC4)cc3)C2)c1C(F)(F)F (single isomer, unassigned) [Example 23, 1-[1-[5-Chloro-2-[4-[4-[(1-fluorocyclobutyl)methyl]piperazin-1-yl]phenyl]phenyl]-3-piperidyl]-5-(trifluoromethyl)pyrazole-4-carboxylic acid hydrochloride]",3.0 nM,27.5 nM,–
"O=C(O)c1cnn(C2CCCN(c3cc(Cl)ccc3-c3ccc(N4CCN(CC56CC(F)(C5)C6)CC4)cc3)C2)c1C(F)(F)F (single isomer, unassigned) [Example 24, 1-[1-[5-Chloro-2-[4-[4-[(3-fluoro-1-bicyclo[1.1.1]pentanyl)methyl]piperazin-1-yl]phenyl]phenyl]-3-piperidyl]-5-(trifluoromethyl)pyrazole-4-carboxylic acid hydrochloride]",3.0 nM,12.7 nM,–
"O=C(O)c1cnn(C2CCCN(c3cc(Cl)ccc3-c3ccc(N4CCN(CC5CC5F)CC4)cc3)C2)c1C(F)(F)F (single isomer, unassigned) [Example 25, 1-[1-[5-Chloro-2-[4-[4-[[2-fluorocyclopropyl]methyl]piperazin-1-yl]phenyl]phenyl]-3-piperidyl]-5-(trifluoromethyl)pyrazole-4-carboxylic acid hydrochloride]",–,22 nM,10.0 nM
"O=C(O)c1cnn(C2CCCN(c3cc(Cl)ccc3-c3ccc(N4CCN(CC5CC5F)CC4)cc3)C2)c1C(F)(F)F (single isomer, unassigned) [Example 26, 1-[1-[5-Chloro-2-[4-[4-[[2-trans-fluorocyclopropyl]methyl]piperazin-1-yl]phenyl]phenyl]-3-piperidyl]-5-(trifluoromethyl)pyrazole-4-carboxylic acid hydrochloride]",–,5.2 nM,1.0 nM
"O=C(O)c1cnn(C2CCCN(c3cc(Cl)ccc3-c3ccc(N4CCN(CC5C[C@@H]5F)CC4)cc3)C2)c1C(F)(F)F (single isomer, unassigned) [Example 27, 1-[1-[5-Chloro-2-[4-[4-[[2-fluorocyclopropyl]methyl]piperazin-1-yl]phenyl]phenyl]-3-piperidyl]-5-(trifluoromethyl)pyrazole-4-carboxylic acid hydrochloride]",3.0 nM,15 nM,–
"O=C(O)c1cnn(C2CCCN(c3cc(Cl)ccc3-c3ccc(N4CCN(C[C@@H]5C[C@@H]5F)CC4)cc3)C2)c1C(F)(F)F (single isomer, unassigned) [Example 28, hydrochloride]",–,5.5 nM,3.0 nM
"O=C(O)c1cnn(C2CCCN(c3cc(Cl)ccc3-c3ccc(N4CCN(C[C@H]5C[C@H]5F)CC4)cc3)C2)c1C(F)(F)F (single isomer, unassigned) [Example 29, hydrochloride]",0.3 nM,6.9 nM,–
"O=C(O)c1cnn(C2CCCN(c3cc(Cl)ccc3-c3ccc(N4CCN(CC5CC56CC6)CC4)cc3)C2)c1C(F)(F)F (single isomer, unassigned) [Example 30, 1-[1-[5-Chloro-2-[4-[4-(spiro[2.2]pentan-2-ylmethyl)piperazin-1-yl]phenyl]phenyl]-3-piperidyl]-5-(trifluoromethyl)pyrazole-4-carboxylic acid hydrochloride]",3.0 nM,8.9 nM,–
"O=C(O)c1cnn(C2CCCN(c3cc(Cl)ccc3-c3ccc(N4CCN(CC5CC5C(F)(F)F)CC4)cc3)C2)c1C(F)(F)F (single isomer, unassigned) [Example 32, 1-[1-[5-Chloro-2-[4-[4-[[2-(trifluoromethyl)cyclopropyl]methyl]piperazin-1-yl]phenyl]phenyl]-3-piperidyl]-5-(trifluoromethyl)pyrazole-4-carboxylic acid hydrochloride]",–,9.3 nM,3.0 nM
"O=C(O)c1cnn(C2CCCN(c3cc(Cl)ccc3-c3ccc(N4CCN(CC5CC5C(F)(F)F)CC4)cc3)C2)c1C(F)(F)F (single isomer, unassigned) [Example 33, 1-[1-[5-Chloro-2-[4-[4-[[2-(trifluoromethyl)cyclopropyl]methyl]piperazin-1-yl]phenyl]phenyl]-3-piperidyl]-5-(trifluoromethyl)pyrazole-4-carboxylic acid hydrochloride]",–,37.5 nM,10.0 nM
"O=C(O)c1cnn(C2CCCN(c3cc(Cl)ccc3-c3ccc(N4CCN(CC5(C(F)(F)F)CC5)CC4)cc3)C2)c1C(F)(F)F (single isomer, unassigned) [Example 34, 1-[1-[5-Chloro-2-[4-[4-[[1-(trifluoromethyl)cyclopropyl]methyl]piperazin-1-yl]phenyl]phenyl]-3-piperidyl]-5-(trifluoromethyl)pyrazole-4-carboxylic acid hydrochloride]",10.0 nM,40.5 nM,–
"O=C(O)c1cnn(C2CCCN(c3cc(Cl)ccc3-c3ccc(N4CCN(CCOC(F)(F)F)CC4)cc3)C2)c1C(F)(F)F (single isomer, unassigned) [Example 35, 1-[1-[5-Chloro-2-[4-[4-[2-(trifluoromethoxy)ethyl]piperazin-1-yl]phenyl]phenyl]-3-piperidyl]-5-(trifluoromethyl)pyrazole-4-carboxylic acid hydrochloride]",3.0 nM,17.5 nM,–
